Test results taken from patent US20110318424A1, “METHODS FOR PROLONGING VIABILITY OF CONE CELLS USING MODULATORS OF THE MAMMALIAN TARGET OF RAPAMYCINE (mTOR)” (PRESIDENT AND FELLOWS OF HARVARD COLLEGE, priority 2008, published 2011).
“Also recorded” adds a separate entry of the source.

Columns and labels:
cones of PDE-β−/− mice = assay: Cone survival in PDE-β−/− mice after systemic insulin or streptozotocin treatment (lacZ staining of retinal flat mounts); format: in vivo, mouse; conditions: for cone survival: 4 weeks of treatment from PW3, read at PW7, versus uninjected control; for cone survival after prolonged treatment: 7 weeks of treatment from PW3, read at PW10, versus untreated
Experimental: (§1) Rapamycin, Streptozotocin and Insulin treatments were performed as follows. Rapamycin was diluted to 10 mg/ml in ethanol. The stock was diluted to 0.015 mg/ml in drinking water over a period of 2 weeks. A single intraperitoneal injection of 150 μl (12 mg/ml in 0.1M citric acid, ph4.5) of Streptozotocin was injected at postnatal day (P) 21. Insulin was injected intraperitoneally daily starting at P21. The concentration was increased weekly such that the first week, 10 U/kg body weight, the second 15 U/kg, the third 20 U/kg and fourth 30 U/kg body weight, were injected. In the treatment that lasted 7 weeks 30 U/kg body weight were injected for the remaining 3 weeks. Blood glucose levels were measured by collecting a drop of blood from the tail directly onto a test strip from TrueTrack smart system (CVS pharmacy). Eye bleeds were avoided due to the fact that cell survival in the retina was being assayed.
Quantification of cone survival was performed as follows. The colors of the bright light image were inverted and processed with Imaris software (Bitplane Inc) to calculate the percentage of blue surface area versus the total retinal surface area (see also FIG. 17). A minimum of 8 retinae per treatment, and for the control, were analyzed. P-values were calculated by the student's t-test.

HIF-1α = HIF-1α immunofluorescence on retinal flat mounts of treated PDE-β−/− mice; format: in vivo, mouse; conditions: PDE-β−/− mice treated for 4 weeks
Experimental: as §1, with “Eye bleeds were avoided due to the fact that cell survival in the retina was being assayed.” left out
(§2) Whole mount and section antibody staining were performed as previously (Punzo, C. & Cepko, C. L. (2008) Dev Dyn 237, 1034-42) described with the following modifications. […] Time points analyzed for the rod and cone death kinetics (P: postnatal day; PW: postnatal week): PDE-β−/−: P10-P20 daily, PW3-10 weekly, PW 12, PW15, PW18, PW45; PDE-γ-KO: P10-P20 daily, PW3-PW10 weekly, PW15, PW25, PW45; Rho-KO: PW4-PW8 weekly, PW10, PW11, PW17, PW20, PW25, PW27, PW31, PW34, PW37, PW45, PW55, PW80; P23H: PW5, PW10, PW16, PW25, PW30, PW35, PW40, PW65, PW70, PW75, PW80, PW85.

p*-mTOR in dorsal cones = assay: Retinal explant culture of wild type mice, p*-mTOR immunofluorescence; format: cell-based, mouse; conditions: wild type retinal explants, 4 hours, absence of glucose, leucine added at 200 μM
Experimental: Retinal explant cultures: The retina was dissected free from other ocular tissues in DMEM, and then incubated in conditions according to the chart in FIG. 10a. Regular DMEM was at 4.5 g/L glucose, low glucose was at 1 g/L, leucine was added at 200 μM and FCS at 10%. Incubation was performed for 4 h and the retinae were fixed and processed for antibody staining as described below.
as §2, with “modifications. Antibody staining for LAMP-2: Triton was replaced with 0.01% Saponin. Antibody staining for p*-mTOR and p*-S6: PBS was replaced by TBS in every step of the procedure.” for “modifications.”

[1] = system: photoreceptors (rods and cones) of rd10 mouse; conditions: cited from earlier work

For insulin, the cone survival (cones of PDE-β−/− mice) was “improved cone survival; also recorded: prolonged cone survival”, the “cone survival after prolonged treatment” value (cones of PDE-β−/− mice) was “did not show any significant improvement of cone survival; also recorded: no significant difference in cone survival” and the “upregulation of HIF-1α in cones” value (HIF-1α) was “did not show the upregulation of HIF-1α; also recorded: prevented the upregulation of HIF-1α”.
In the case of CC(C)C[C@H](N)C(=O)O [leucine], the “dorsal p*-mTOR with increased leucine” value (p*-mTOR in dorsal cones) is reported as “abolished”.
With CN(N=O)C(=O)N[C@H]1C(O)O[C@H](CO)[C@@H](O)[C@@H]1O (mixture of isomers) [streptozotocin] the cone survival (cones of PDE-β−/− mice) was “decrease in cone survival” and the “cone survival after prolonged treatment” value (cones of PDE-β−/− mice) was “no significant difference in cone survival”.
For proinsulin, the hyperglycemia ([1]; mice treated with proinsulin) is listed as “did not develop hyperglycemia” and the photoreceptor death ([1]; rd10 mouse, constitutive expression, rods and cones) is listed as “delays photoreceptor death”.
